In patent publication US10457707B2, “Substituted urea depsipeptide analogs as activators of the CLPP endopeptidase” (priority 2015, dated 2019):
In brackets after ≈: the same amount, converted by molar mass. Read-outs that look alike come from different tables or passages of the source. *1 amine or outer side, *2 acyl side, *3 side chain or, on linkers, in order; H or OH if unused. Where a SMILES comes first, the peptide text is derived from it. Bridges are numbered along the chain shown (N, C = ends). [ ]: non-standard residue; d: D form. The star is where a group is joined. Phe(3,5-F2) = N[C@@H](Cc1cc(F)cc(F)c1)C(=O)O; NMepT = CN[C@H](C(=O)O)[C@@H](C)OP(=O)(O)O; NH(4-OCF3-phenyl) = FC(F)(F)Oc1ccc(N*)cc1; Morpholine(3S-CO) = O=C(O)[C@@H]1COCCN1; Pro(4S-Me) = C[C@@H]1CN[C@H](C(=O)O)C1; Pro(4R-Me) = C[C@H]1CN[C@H](C(=O)O)C1; NMeaThr = CN[C@H](C(=O)O)[C@H](C)O; Hyp = O=C(O)[C@@H]1C[C@@H](O)CN1; NH(4-Et-phenyl) = CCc1ccc(N*)cc1; NMeT = CN[C@H](C(=O)O)[C@@H](C)O; NH(4-Me-phenyl) = Cc1ccc(N*)cc1; aThr = C[C@H](O)[C@H](N)C(=O)O; Pip = O=C(O)[C@@H]1CCCCN1; X1 = N#Cc1cc(N*)ccc1F; CO = O=C([*:1])[*:2]

Key:
Type in all cases: cell-based
[1] = Cytotoxicity assay (CellTiter-Glo cell viability, 72 hours); details: African green monkey
In short: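 Viability measured by CellTiter-Glo luminescence after 72-hour compound exposure (serial dilutions, DMSO control) of Vero monolayers seeded at 5000 cells/well in 10% FBS DMEM. IC50 values are the range of two biologically independent experiments, each run in duplicate.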

[2] = system: Staphylococcus aureus, USA 300 wherein ClpP is inactivated; test: Minimal inhibitory concentration assay
In short: (§1)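 Compound is serially diluted two-fold in the appropriate broth, and bacterial inoculum at about 10^5 cfu/mL is added so the highest final concentration is 200 μM. Plates stay overnight at 37 °C under aerobic conditions before growth is scored by eye.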

[3] = system: Staphylococcus aureus, USA 300; test: Minimal inhibitory concentration assay; details: USA300, read-out: Minimal Inhibitory Concentrations S. aureus USA 300
In short: as §1

[4] = Vero cells, 72 hours, growth inhibition, read-out: Cytotoxicity IC50

Row | SMILES | IC50 at 72 h [1] [µM] | Minimal Inhibitory Concentrations S. aureus USA 300 ΔClpP [2] [µM] | MIC [3] [µM] | IC50 at 72 h [1, 4] [µM]
1 | C[C@@H]1C[C@H]2C(=O)O[C@@H](C)[C@H](NC(=O)[C@H](Cc3cc(F)cc(F)c3)NC(=O)Nc3ccc(F)c(C#N)c3)C(=O)N3C[C@H](O)C[C@H]3C(=O)N3CCOC[C@H]3C(=O)N[C@@H](C)C(=O)N2C1 [Compound 326, (S)-2-(3-(3-cyano-4-fluorophenyl)ureido)-3-(3,5-difluorophenyl)-N-((6aS,8R,12S,13S,15aS,17R,21S,23aS)-8-hydroxy-13,17,21-trimethyl-6,11,15,20,23-pentaoxooctadecahydro-6H,11H,15H-[1,4]oxazino[3,4-i]dipyrrolo[2,1-c:2′,1′-l][1]oxa[4,7,10,13]tetraazacyclo-hexadecin-12-yl)propanamide] ({X1-CO}-[Phe(3,5-F2)][aThr][Hyp][Morpholine(3S-CO)]A[Pro(4R-Me)]; ester 2-C) | > 100 | >20 | 20 (≈ 17.1 µg/mL) | 
2 | C[C@@H]1C[C@H]2C(=O)O[C@@H](C)[C@H](NC(=O)[C@H](Cc3cc(F)cc(F)c3)NC(=O)Nc3ccc(F)c(C#N)c3)C(=O)N3CCC[C@H]3C(=O)N3CCCC[C@H]3C(=O)N[C@@H](C)C(=O)N2C1 [Compound 324, (S)-2-(3-(3-cyano-4-fluorophenyl)ureido)-3-(3,5-difluorophenyl)-N-((2R,6S,8aS,14aS,20S,21S,23aS)-2,6,21-trimethyl-5,8,14,19,23-pentaoxooctadecahydro-1H,5H,14H,19H-pyrido[2,1-i]dipyrrolo[2,1-c:2′,1′-l][1]oxa[4,7,10,13]tetraazacyclo-hexadecin-20-yl)propanamide] ({X1-CO}-[Phe(3,5-F2)][aThr]P[Pip]A[Pro(4R-Me)]; ester 2-C) | 10.2 ± 0.5 | >20 | 0.625 (≈ 0.523 µg/mL) | 
3 | Cc1ccc(NC(=O)N[C@@H](Cc2cc(F)cc(F)c2)C(=O)N[C@@H]2C(=O)N3CCC[C@H]3C(=O)N(C)[C@@H]([C@@H](C)OP(=O)(O)O)C(=O)N[C@@H](C)C(=O)N3C[C@@H](C)C[C@H]3C(=O)O[C@H]2C)cc1 [Compound 188, (R)-1-((2S,6S,9S,11aS,17S,18S,20aS)-17-((S)-3-(3,5-difluorophenyl)-2-(3-(p-tolyl)ureido)propanamido)-2,6,10,18-tetramethyl-5,8,11,16,20-pentaoxohexadecahydro-1H,5H,16H-dipyrrolo[2,1-c:2′,1′-l][1]oxa[4,7,10,13]tetraazacyclohexadecin-9-yl)ethyl dihydrogen phosphate] ({NH(4-Me-phenyl)-CO}-[Phe(3,5-F2)][aThr]P[NMepT]A[Pro(4S-Me)]; ester 2-C) |  | >200 | 50 | > 100
4 | C[C@@H]1C[C@H]2C(=O)O[C@@H](C)[C@H](NC(=O)[C@H](Cc3cc(F)cc(F)c3)NC(=O)Nc3ccc(OC(F)(F)F)cc3)C(=O)N3CCC[C@H]3C(=O)N(C)[C@@H]([C@@H](C)O)C(=O)N[C@@H](C)C(=O)N2C1 [Compound 41, (S)-3-(3,5-difluorophenyl)-N-((2R,6S,9S,11aS,17S,18S,20aS)-9-((R)-1-hydroxyethyl)-2,6,10,18-tetramethyl-5,8,11,16,20-pentaoxohexadecahydro-1H,5H,16H-dipyrrolo[2,1-c:2′,1′-l][1]oxa[4,7,10,13]tetraazacyclohexadecin-17-yl)-2-(3-(4-(trifluoromethoxy)phenyl)ureido)propanamide] ({NH(4-OCF3-phenyl)-CO}-[Phe(3,5-F2)][aThr]P[NMeT]A[Pro(4R-Me)]; ester 2-C) | 23.9 ± 2 | 50 | 0.02 (≈ 0.0176 µg/mL) | 
5 | Cc1ccc(NC(=O)N[C@@H](Cc2cc(F)cc(F)c2)C(=O)N[C@@H]2C(=O)N3CCC[C@H]3C(=O)N3CCOC[C@H]3C(=O)N[C@@H](C)C(=O)N3C[C@H](C)C[C@H]3C(=O)O[C@H]2C)cc1 [Compound 210, (S)-3-(3,5-difluorophenyl)-2-(3-(p-tolyl)ureido)-N-((6aS,12S,13S,15aS,17R,21S,23aS)-13,17,21-trimethyl-6,11,15,20,23-pentaoxooctadecahydro-6H,11H,15H-[1,4]oxazino[3,4-i]dipyrrolo[2,1-c:2′,1′-l][1]oxa[4,7,10,13]tetraazacyclohexadecin-12-yl)propanamide] ({NH(4-Me-phenyl)-CO}-[Phe(3,5-F2)][aThr]P[Morpholine(3S-CO)]A[Pro(4R-Me)]; ester 2-C) |  | >200 | 0.006 (≈ 0.00486 µg/mL) | 5.82 ± 0.39
6 | CCc1ccc(NC(=O)N[C@@H](Cc2cc(F)cc(F)c2)C(=O)N[C@@H]2C(=O)N3CCC[C@H]3C(=O)N(C)[C@@H]([C@@H](C)O)C(=O)N[C@@H](C)C(=O)N3C[C@@H](C)C[C@H]3C(=O)O[C@H]2C)cc1 [Compound 37, (S)-3-(3,5-difluorophenyl)-2-(3-(4-ethylphenyl)ureido)-N-((2S,6S,9S,11aS,17S,18S,20aS)-9-((R)-1-hydroxyethyl)-2,6,10,18-tetramethyl-5,8,11,16,20-pentaoxohexadecahydro-1H,5H,16H-dipyrrolo[2,1-c:2′,1′-l][1]oxa[4,7,10,13]tetraazacyclohexadecin-17-yl)propanamide] ({NH(4-Et-phenyl)-CO}-[Phe(3,5-F2)][aThr]P[NMeT]A[Pro(4S-Me)]; ester 2-C) | 33.8 ± 1.6 | 100 | 0.1 (≈ 0.0826 µg/mL) | 
7 | Cc1ccc(NC(=O)N[C@@H](Cc2cc(F)cc(F)c2)C(=O)N[C@@H]2C(=O)N3CCC[C@H]3C(=O)N(C)[C@@H]([C@H](C)O)C(=O)N[C@@H](C)C(=O)N3C[C@H](C)C[C@H]3C(=O)O[C@H]2C)cc1 [Compound 208, (S)-3-(3,5-difluorophenyl)-N-((2R,6S,9S,11aS,17S,18S,20aS)-9-((S)-1-hydroxyethyl)-2,6,10,18-tetramethyl-5,8,11,16,20-pentaoxohexadecahydro-1H,5H,16H-dipyrrolo[2,1-c:2′,1′-l][1]oxa[4,7,10,13]tetraazacyclohexadecin-17-yl)-2-(3-(p-tolyl)ureido)propanamide] ({NH(4-Me-phenyl)-CO}-[Phe(3,5-F2)][aThr]P[NMeaThr]A[Pro(4R-Me)]; ester 2-C) |  | 200 | 0.1 (≈ 0.0812 µg/mL) | 46.1 ± 5.5
8 | CCc1ccc(NC(=O)N[C@@H](Cc2cc(F)cc(F)c2)C(=O)N[C@@H]2C(=O)N3CCC[C@H]3C(=O)N(C)[C@@H]([C@@H](C)O)C(=O)N[C@@H](C)C(=O)N3C[C@H](C)C[C@H]3C(=O)O[C@H]2C)cc1 [Compound 42, (S)-3-(3,5-difluorophenyl)-2-(3-(4-ethylphenyl)ureido)-N-((2R,6S,9S,11aS,17S,18S,20aS)-9-((R)-1-hydroxyethyl)-2,6,10,18-tetramethyl-5,8,11,16,20-pentaoxohexadecahydro-1H,5H,16H-dipyrrolo[2,1-c:2′,1′-l][1]oxa[4,7,10,13]tetraazacyclohexadecin-17-yl)propanamide] ({NH(4-Et-phenyl)-CO}-[Phe(3,5-F2)][aThr]P[NMeT]A[Pro(4R-Me)]; ester 2-C) | 24.9 ± 2.6 | 100 | 0.1 (≈ 0.0826 µg/mL) | 
9 | C[C@@H]1C[C@H]2C(=O)OC[C@H](NC(=O)[C@H](Cc3cc(F)cc(F)c3)NC(=O)Nc3ccc4c(c3)OCO4)C(=O)N3C[C@H](O)C[C@H]3C(=O)N3CCCCC3C(=O)N[C@@H](C)C(=O)N2C1 (stereo partly drawn) [Compound 325, (S)-2-(3-(benzo[d][1,3]dioxol-5-yl)ureido)-3-(3,5-difluorophenyl)-N-((2R,6S,8aR,14aS,16R,20S,23aS)-16-hydroxy-2,6-dimethyl-5,8,14,19,23-pentaoxooctadecahydro-1H,5H,14H,19H-pyrido[2,1-i]dipyrrolo[2,1-c:2′,1′-l][1]oxa[4,7,10,13]tetraazacyclo-hexadecin-20-yl)propanamide] | > 100 | >20 | 2.5 (≈ 2.1 µg/mL) | 
10 | Cc1ccc(NC(=O)N[C@@H](Cc2cc(F)cc(F)c2)C(=O)N[C@@H]2C(=O)N3CCC[C@H]3C(=O)N(C)[C@@H]([C@@H](C)O)C(=O)N[C@@H](C)C(=O)N3C[C@@H](C)C[C@H]3C(=O)O[C@H]2C)cc1 [Compound 35, (S)-3-(3,5-difluorophenyl)-N-((2S,6S,9S,11aS,17S,18S,20aS)-9-((R)-1-hydroxyethyl)-2,6,10,18-tetramethyl-5,8,11,16,20-pentaoxohexadecahydro-1H,5H,16H-dipyrrolo[2,1-c:2′,1′-l][1]oxa[4,7,10,13]tetraazacyclohexadecin-17-yl)-2-(3-(p-tolyl)ureido)propanamide] ({NH(4-Me-phenyl)-CO}-[Phe(3,5-F2)][aThr]P[NMeT]A[Pro(4S-Me)]; ester 2-C) |  | 200 | 0.2 (≈ 0.162 µg/mL) | 55.7 ± 3.6
11 | Cc1ccc(NC(=O)N[C@@H](Cc2cc(F)cc(F)c2)C(=O)N[C@@H]2C(=O)N3CCC[C@H]3C(=O)N(C)[C@@H]([C@@H](C)O)C(=O)N[C@@H](C)C(=O)N3C[C@H](C)C[C@H]3C(=O)O[C@H]2C)cc1 [Compound 38, (S)-3-(3,5-difluorophenyl)-N-((2R,6S,9S,11aS,17S,18S,20aS)-9-((R)-1-hydroxyethyl)-2,6,10,18-tetramethyl-5,8,11,16,20-pentaoxohexadecahydro-1H,5H,16H-dipyrrolo[2,1-c:2′,1′-l][1]oxa[4,7,10,13]tetraazacyclohexadecin-17-yl)-2-(3-(p-tolyl)ureido)propanamide] ({NH(4-Me-phenyl)-CO}-[Phe(3,5-F2)][aThr]P[NMeT]A[Pro(4R-Me)]; ester 2-C) |  | 200 | 0.1 (≈ 0.0812 µg/mL) | 46.1 ± 5.5
